# According to ChEMBL document CHEMBL2331557, “Antidepressant abietane diterpenoids from Chinese eaglewood” (J Nat Prod, 2013):
# Organism: Rattus norvegicus
# Test: Inhibition of [3H]NE reuptake at NET in rat brain synaptosomes at 10 uM
# Assay type: subcellular
row,Structure (SMILES),inhibition [%]
1,CC(C)[C@@]1(O)C=C2[C@H](O)C[C@H]3[C@](C)(C(=O)O)CCC[C@]3(C)[C@@]2(O)CC1 [AQUILARABIETIC ACID A],81.8
2,CC(C)[C@]1(O)CC[C@H]2C(=C[C@H](O)[C@@H]3[C@]2(C)CCC[C@@]3(C)C(=O)O)[C@H]1O,37.2
3,C[C@]12CCC[C@@](C)(C(=O)O)[C@@H]1CC(=O)C1CC(=O)CC[C@@H]12 (some centres undefined),18.9
4,CC(C)(O)[C@]1(O)CCC2=C(C(=O)C[C@H]3[C@](C)(C(=O)O)CCC[C@]23C)[C@H]1O,0
5,CCO[C@H]1C[C@H]2C(=CC[C@@H]3[C@]2(C)CCC[C@@]3(C)C(=O)O)C=C1C(C)C,13.4
6,COC(C)(C)c1ccc2c(c1)[C@H](O)C[C@H]1[C@](C)(C(=O)O)CCC[C@]21C,70.4
7,CC(C)[C@@]12C=C3[C@H](O)C[C@@H]4[C@](C)(CCC[C@@]4(C)C(=O)O)[C@H]3C[C@@H]1OC(C)(C)O2,37.6
8,CC(C)[C@@]1(O)C=C2[C@H](O)C[C@@H]3[C@](C)(CCC[C@@]3(C)C(=O)O)[C@H]2C[C@@H]1O [AQUILARABIETIC ACID B],39.1
9,C=C(C)c1ccc2c(c1)[C@H](O)C[C@H]1[C@](C)(C(=O)O)CCC[C@]21C,73.8
10,CC(C)[C@@]12CC[C@H]3C(=C[C@@H]4OC(=O)[C@]5(C)CCC[C@@]3(C)[C@@H]45)[C@@H]1O2,8.1
11,CC(C)[C@]1(O)C=C2[C@H](O)C[C@@H]3[C@](C)(CCC[C@@]3(C)C(=O)O)[C@H]2C[C@H]1O,34.4
12,CNCC[C@H](Oc1cccc2ccccc12)c1cccs1,81.4

# Molecular target: Sodium-dependent serotonin transporter (Rattus norvegicus, UniProt P31652)
# Sequence (P31652 whole entry): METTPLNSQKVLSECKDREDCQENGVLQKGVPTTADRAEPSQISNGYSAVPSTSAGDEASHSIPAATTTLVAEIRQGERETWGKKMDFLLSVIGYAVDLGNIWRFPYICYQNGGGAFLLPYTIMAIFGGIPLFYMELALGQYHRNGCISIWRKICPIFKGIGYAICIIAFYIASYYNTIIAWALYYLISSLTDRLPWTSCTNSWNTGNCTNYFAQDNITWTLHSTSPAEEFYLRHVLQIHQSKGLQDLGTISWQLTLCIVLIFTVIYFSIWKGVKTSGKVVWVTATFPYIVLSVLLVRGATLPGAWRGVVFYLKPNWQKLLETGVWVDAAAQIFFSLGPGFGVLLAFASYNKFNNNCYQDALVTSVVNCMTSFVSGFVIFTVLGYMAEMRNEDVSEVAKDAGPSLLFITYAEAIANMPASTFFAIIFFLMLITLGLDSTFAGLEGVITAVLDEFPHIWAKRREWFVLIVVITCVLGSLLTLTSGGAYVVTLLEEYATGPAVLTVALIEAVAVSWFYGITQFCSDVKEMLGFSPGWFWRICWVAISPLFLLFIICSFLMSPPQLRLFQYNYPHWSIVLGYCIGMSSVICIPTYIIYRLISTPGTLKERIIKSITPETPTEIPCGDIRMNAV
# Test: Inhibition of [3H]5-HT reuptake at SERT in rat brain synaptosomes
# Assay type: subcellular
row,Structure (SMILES),IC50 [µM]
1,CC(C)[C@@]1(O)C=C2[C@H](O)C[C@@H]3[C@](C)(CCC[C@@]3(C)C(=O)O)[C@H]2C[C@@H]1O [AQUILARABIETIC ACID B],3.2

# Test system: not listed separately
# Test: Inhibition of [3H]NE reuptake at NET in rat brain synaptosomes
# Assay type: subcellular
row,Structure (SMILES),IC50 [nM]
1,CC(C)[C@@]1(O)C=C2[C@H](O)C[C@H]3[C@](C)(C(=O)O)CCC[C@]3(C)[C@@]2(O)CC1 [AQUILARABIETIC ACID A],910
